Data taken from US20250263370A1 (Tay Therapeutics Limited, priority 2022, published 2025).
Several values for one entry are separate records, joined by “and”; a condition that tells them apart may be missing. Equal values may be shown once. Read-outs that look alike come from different tables or passages of the source. Marks after values point to notes of the source that are not given here.

Experiments:
CXCL10 = CXCL10 levels by ELISA in IFN-γ stimulated human peripheral blood mononuclear cells; format: cell-based; settings: human PBMC
Method: The impact of Examples 23, 80, and 101 on IL-17A, IL-22, and CXCL10 levels was analyzed in cryopreserved human peripheral blood mononuclear cells (PBMC) by ELISA. […] For IL-17A and IL-22 assays, Examples 23, 80, and 101 were serially diluted from 10 mM in DMSO and further diluted in assay media to 100× the required final concentration, of which, 2 μL was added per well to a round-bottom 96-well tissue culture plate where the final DMSO concentration per well was 0.1%. CD2, CD3, and CD28 antibody-coated beads from the T-cell activation/expansion kit (Miltenyi Biotec) were added to the PBMC at a bead-to-cell ratio of 1:2.
(§1) The mixture of PBMCs and beads were seeded into the wells of the round-bottom 96-well plate at a concentration of 2×10^5 cells/well in a total volume of 200 μL. The cells were cultured for 72 hours at 37° C. and 5% CO2 and then supernatants were collected and IL-17A and IL-22 levels were measured by ELISA. For the CXCL10 assay, Examples 23, 80, and 101 were serially diluted from 10 mM in DMSO and further diluted in assay media to 100× the required final concentration, of which 2 μL was added per well to a 96-well tissue culture plate. The final compound concentration ranged from 30,000 nM to 0.005 nM and the final DMSO concentration per well was 0.3%. PBMCs were seeded at approximately 2×10^5 cells/well in the wells of the 96-well tissue culture plate in a total volume of 190 μL. The plate was incubated for 1 hour at 37° C. and 5% CO2. The cells were then stimulated with IFN-γ (15 ng/mL final concentration) in a volume of 10 μL. The cells were then cultured for 24 hours at 37° C. and 5% CO2. The supernatant was collected and CXCL10 levels were measured by ELISA.

IL-22 = IL-22 levels by ELISA in stimulated human peripheral blood mononuclear cells; format: cell-based; settings: for IC50: Homo sapiens, PBMC
Method: (§2) CD2, CD3, and CD28 antibody-coated beads from the T-cell activation/expansion kit (Miltenyi Biotec) were added to the PBMC at a bead-to-cell ratio of 1:2.
as §1, with “For the CXCL10 assay, Examples 23, 80, and 101 were serially diluted from 10 mM in DMSO and further diluted in assay media to 100× the required final concentration, of which 2 μL was added per well to a 96-well tissue culture plate.” left out, “The cells were then stimulated with IFN-γ (15 ng/mL final concentration) in a volume of 10 μL.” left out

[1] = system: rat anti-collagen IgG1 antibodies; assay: Rat anti-collagen IgG1 antibodies in serum of CIA rats at day 21; format: in vivo, Lewis rat; settings: for Average rat anti-collagen IgG1 levels, Mean: day 21, group mean; for Final Rat Anti-Collagen IgG1 Antibody Con. / Rat Anti-Collagen IgG1 Antibody Con.: day 21, per animal; for Rat Anti-Collagen IgG1 Antibody Con.: before multiplying by Fold 1000; for levels of rat anti-collagen IgG1 antibodies relative to CIA induced, no treatment: day 21
Method: Blood was additionally collected from groups 1-7 via cardiac puncture following euthanasia on Day 21. […] Serum was divided into two separate tubes and stored at −75±15° C. One tube was used to analyze IgG1, and the other tube was reserved for additional analyses.

IL-17A = IL-17A levels by ELISA in stimulated human peripheral blood mononuclear cells; format: cell-based; settings: for IC50: Homo sapiens, PBMC
Method: as §2
as §1, with “For the CXCL10 assay, Examples 23, 80, and 101 were serially diluted from 10 mM in DMSO and further diluted in assay media to 100× the required final concentration, of which 2 μL was added per well to a 96-well tissue culture plate.” left out, “The cells were then stimulated with IFN-γ (15 ng/mL final concentration) in a volume of 10 μL.” left out

[2] = Pharmacokinetics and plasma concentration of Example 101 in Lewis rats after oral administration (CIA study); format: in vivo, Lewis rat
[3] = Lewis rats, oral, 10 mg/kg, day 20, mean
[4] = Lewis, rat, plasma, oral, 10 mg/kg, oral, day 0, 10 mg/kg, per test subject, read-out: Plasma concentration
[5] = Lewis, rat, plasma, oral, 10 mg/kg, oral, day 20, 10 mg/kg, per test subject, read-out: Plasma concentration
[6] = Lewis, rat, plasma, oral, 10 mg/kg, plasma, oral, day 0, 10 mg/kg, read-out: Mean Concentration

For `CNC(=O)c1[nH]c(C(=O)NC2CCC2)cc1O[C@@H](C)c1ccccc1` (stereo in doubt) [Example 101, N^5-cyclobutyl-N^2-methyl-3-(1-phenylethoxy)-1H-pyrrole-2,5-dicarboxamide], the “selectivity to induction of CXCL10 relative to IL-17A and IL-22” value (CXCL10) was “showed selectivity to induction of CXCL10 relative to IL-17A and IL-22”, the “IC50 for CXCL-10 relative to GSK620” value (CXCL10; IFN-γ, 24 hours) was “substantially lower IC50” and the IC50 (CXCL10; Test Subject 1, read-out: CXCL10 IC50) was over 30000 nM. For the same compound, the IC50 (CXCL10; Test Subject 2, read-out: CXCL10 IC50) was over 30000 nM, the IC50 (CXCL10; Test Subject 3, read-out: CXCL10 IC50) was over 30000 nM and the IC50 (CXCL10; mean of test subjects, read-out: CXCL10 IC50 Mean) was over 30000 nM. It also gave an IC50 (IL-22; Test Subject 1, read-out: IL-22 IC50) of 14.8 nM, an IC50 (IL-22; Test Subject 2, read-out: IL-22 IC50) of 26.9 nM and an IC50 (IL-22; Test Subject 3, read-out: IL-22 IC50) of 21.1 nM. The IC50 (IL-22; mean of test subjects, read-out: IL-22 IC50 Mean) was 20.9 nM, the “IC50 for IL-22 relative to GSK620” value (IL-22; human PBMC, 72 hours) was “substantially lower IC50” and the “Biomarker selectivity (IL-22 vs. CXCL10)” value (IL-22; human PBMC, from mean IC50) was over 1433 Fold. For the same compound, the “Average rat anti-collagen IgG1 levels, Mean” value ([1]; Group 5 (CIA), 3 mg/kg) was 7247.32*, the “Final Rat Anti-Collagen IgG1 Antibody Con.” value ([1]; Group 5 (CIA), 3 mg/kg) was 7202.91 units/ml and 5737.56 units/ml and 596.39 units/ml and 17040.09 units/ml and 6834.32 units/ml and 2359.32 units/ml and 1570.97 units/ml and 16636.97 units/ml and the “Average rat anti-collagen IgG1 levels, Mean” value ([1]; Group 6 (CIA), 10 mg/kg) was 10839.90. The “Final Rat Anti-Collagen IgG1 Antibody Con.” value ([1]; Group 6 (CIA), 10 mg/kg) was 44339.86 units/ml and 9577.48 units/ml and 15070.08 units/ml and 545.06 units/ml and 12072.29 units/ml and 3772.28 units/ml and 782.47 units/ml and 559.69 units/ml, the “Average rat anti-collagen IgG1 levels, Mean” value ([1]; Group 7 (CIA), 30 mg/kg) was 1447.13** and the “Final Rat Anti-Collagen IgG1 Antibody Con.” value ([1]; Group 7 (CIA), 30 mg/kg) was 219.33 units/ml and 81.22 units/ml and 1208.05 units/ml and 4311.36 units/ml and 1799.62 units/ml and 548.72 units/ml and 1961.63 units/ml. For the same compound, the “Rat Anti-Collagen IgG1 Antibody Con.” value ([1]; Group 5 (CIA), 3 mg/kg) was 7.20 units/ml and 5.74 units/ml and 0.60 units/ml and 17.04 units/ml and 6.83 units/ml and 2.36 units/ml and 1.57 units/ml and 16.64 units/ml, the “Rat Anti-Collagen IgG1 Antibody Con.” value ([1]; Group 6 (CIA), 10 mg/kg) was 44.34 units/ml and 9.58 units/ml and 15.07 units/ml and 0.55 units/ml and 12.07 units/ml and 3.77 units/ml and 0.78 units/ml and 0.56 units/ml and the “Rat Anti-Collagen IgG1 Antibody Con.” value ([1]; Group 7 (CIA), 30 mg/kg) was 0.22 units/ml and 0.08 units/ml and 1.21 units/ml and 4.31 units/ml and 1.80 units/ml and 0.55 units/ml and 1.96 units/ml. For the same compound, the “levels of rat anti-collagen IgG1 antibodies relative to CIA induced, no treatment” value ([1]; 1 mg/kg, 10 mg/kg as printed, p<0.05) was “significantly decreased levels”, the “levels of rat anti-collagen IgG1 antibodies relative to CIA induced, no treatment” value ([1]; 30 mg/kg, p<0.01) was “significantly decreased levels” and the IC50 (IL-17A; Test Subject 1, read-out: IL-17A IC50) was 20.5 nM. For the same compound, the IC50 (IL-17A; Test Subject 2, read-out: IL-17A IC50) was 5.7 nM, the IC50 (IL-17A; Test Subject 3, read-out: IL-17A IC50) was 58.5 nM and the IC50 (IL-17A; mean of test subjects, read-out: IL-17A IC50 Mean) was 28.2 nM. The “effectiveness in reducing inflammatory biomarkers IL-17A, IL-22, and CXCL-10 relative to GSK620” value (IL-17A; human PBMC) was “more effective than GSK620”, the “IC50 for IL-17A relative to GSK620” value (IL-17A; human PBMC, 72 hours) was “substantially lower IC50” and the “Biomarker selectivity (IL-17 vs. CXCL10)” value (IL-17A; human PBMC, from mean IC50) was over 1063 Fold. For the same compound, the “Plasma concentration” value ([2]; Day 21, Group 5 (CIA), 3 mg/kg, per animal) was 37.5 ng/mL and 59.4 ng/mL and 64.9 ng/mL and 49.5 ng/mL and 65.2 ng/mL and 71.9 ng/mL and 69.6 ng/mL, the “Plasma concentration” value ([2]; Day 21, Group 6 (CIA), 10 mg/kg, per animal) was 270 ng/mL and 134 ng/mL and 209 ng/mL and 281 ng/mL and 251 ng/mL and 313 ng/mL and 175 ng/mL and 28.4 ng/mL and the “Plasma concentration” value ([2]; Day 21, Group 7 (CIA), 30 mg/kg, per animal) was 1620 ng/mL and 1260 ng/mL and 1430 ng/mL and 1220 ng/mL and 1350 ng/mL and 2000 ng/mL and 1440 ng/mL. For the same compound, the “day 20 plasma concentration versus dose” value ([2]; Lewis rats, oral administration) was “appeared to increase in a dose-dependent manner”, the AUClast/D [2, 3] was 528 (ng·h/mL)/(mg/kg) and the “AUC—% Extrap—obs” value [2, 3] was 1.11%. The “time at which plasma levels peaked after the second daily dose” value ([2]; Lewis rats, oral, second daily dose administered at 8 h) was 10 h, the concentration at 21 day ([2]; Lewis, rat, plasma, oral, 3 mg/kg, Day 21, Group 5 (CIA), 3 mg/kg, per animal, read-out: Plasma Concentration) was 54.9 ng/mL and the concentration at 21 day ([2]; Lewis, rat, plasma, oral, 3 mg/kg, Day 21, Group 5 (CIA), 3 mg/kg, read-out: Mean Plasma Concentration) was 59.1 ng/mL. For the same compound, the concentration at 21 day ([2]; Lewis, rat, plasma, oral, 10 mg/kg, Day 21, Group 6 (CIA), 10 mg/kg, read-out: Mean Plasma Concentration) was 208 ng/mL, the concentration at 0.5 h [2, 4] was 738 ng/mL and the concentration at 1 h [2, 4] was 1090 ng/mL. For the same compound, the concentration at 2 h [2, 4] was 1110 ng/mL, the concentration at 4 h [2, 4] was 1170 ng/mL and the concentration at 8 h [2, 4] was 190 ng/mL. It also gave a concentration at 10 h [2, 4] of 1880 ng/mL, a concentration at 12 h [2, 4] of 772 ng/mL and a concentration at 14 h [2, 4] of 324 ng/mL. It also gave a concentration at 0.25 h [2, 5] of 1260 ng/mL, a concentration at 0.5 h [2, 5] of 1660 ng/mL and a concentration at 1 h [2, 5] of 1600 ng/mL. It also gave a concentration at 2 h [2, 5] of 841 ng/mL, a concentration at 4 h [2, 5] of 452 ng/mL and a concentration at 10 h [2, 5] of 1170 ng/mL. For the same compound, the concentration at 12 h [2, 5] was 258 ng/mL, the concentration at 0.25 h [2, 6] was 502 ng/mL and the concentration at 0.5 h [2, 6] was 706 ng/mL. For the same compound, the concentration at 1 h [2, 6] was 1270 ng/mL, the concentration at 2 h [2, 6] was 1240 ng/mL and the concentration at 4 h [2, 6] was 997 ng/mL. The concentration at 8 h [2, 6] was 148 ng/mL, the concentration at 10 h [2, 6] was 1930 ng/mL and the concentration at 12 h [2, 6] was 799 ng/mL. For the same compound, the concentration at 14 h [2, 6] was 439 ng/mL and the concentration at 24 h ([2]; Lewis, rat, plasma, oral, 10 mg/kg, plasma, oral, day 0, 10 mg/kg, 24 h) was 57 ng/mL.
